This note sets out measurements from patent US20220356186A1, “PERK INHIBITING PYRROLOPYRIMIDINE COMPOUNDS” (HiberCell, Inc., priority 2019, published 2022).

Like-named read-outs stand apart in the source and are kept apart here. Some results are limits rather than exact numbers.

In experiment [1] the target is T1, EIF2AK3 (PERK) catalytic domain (amino acids 536-1116) (Homo sapiens, UniProt Q9NZJ5).
T1 construct: EIF2AK3 (PERK) catalytic domain (amino acids 536-1116)
T1 sequence (Q9NZJ5 536-1116): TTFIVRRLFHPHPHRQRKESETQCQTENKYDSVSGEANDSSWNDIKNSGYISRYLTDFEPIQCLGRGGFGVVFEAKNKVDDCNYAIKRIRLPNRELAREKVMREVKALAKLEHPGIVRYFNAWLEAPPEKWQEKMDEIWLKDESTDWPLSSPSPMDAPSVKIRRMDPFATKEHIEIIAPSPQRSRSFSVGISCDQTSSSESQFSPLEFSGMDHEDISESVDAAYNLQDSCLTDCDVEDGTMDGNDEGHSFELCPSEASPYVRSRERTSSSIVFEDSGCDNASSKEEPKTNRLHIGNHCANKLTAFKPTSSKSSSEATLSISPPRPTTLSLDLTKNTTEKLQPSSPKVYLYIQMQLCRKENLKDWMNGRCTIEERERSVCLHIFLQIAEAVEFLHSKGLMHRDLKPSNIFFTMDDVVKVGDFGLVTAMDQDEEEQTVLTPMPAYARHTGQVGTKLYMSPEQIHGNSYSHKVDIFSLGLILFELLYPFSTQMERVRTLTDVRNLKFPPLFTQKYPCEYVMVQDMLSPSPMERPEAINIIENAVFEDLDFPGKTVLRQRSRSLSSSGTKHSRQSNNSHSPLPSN
Put plainly: PERK in vitro activity assay (isolated), TR-FRET kinase assay. Conditions: isolated PERK enzyme, 1.5 μM ATP; read-out: Biochemical IC50. It is filed as biochemical. Summed up: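 Human PERK catalytic domain (aa 536-1116) phosphorylating 100-200 nM GFP-eIF2a in 50 mM HEPES pH 7.5, 10 mM MgCl2, 1 mM EGTA, 0.01% Brij-35; enzyme-started, 45 min at room temperature. Stopped with 10 mM EDTA, 2 nM Tb-anti-phospho-eIF2a added for 90 min; IC50 from TR-FRET ratios by 4-parameter logistic fit.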
A general note: TR-FRET usually uses a lanthanide donor and a delayed reading to cut background.

Experiment [2] concerns GFP-eIF2α in HEK293 cells. Put plainly: PERK cellular assay, TR-FRET in HEK293-EGFP-eIF2a cells after tunicamycin-induced ER stress. The format is cell-based. The settings on record: HEK293-EGFP-eIF2a cells, tunicamycin 2 hours, read-out: Cellular eIF2α IC50. Summed up:
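HEK293 cells stably expressing GFP-eIF2α, plated 5000 cells/well overnight, pretreated with inhibitors 30 min at 37 °C, then ER stress induced with tunicamycin […] for 2 h.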

As usually defined, the IC50 is the concentration at which inhibition is half-maximal. For `Cc1cc(NC(=O)Cc2cccc(Cl)c2)ccc1-c1cn(C)c2ncnc(N)c12` [Example 150, N-(4-(4-amino-7-methyl-7H-pyrrolo[2,3-d]pyrimidin-5-yl)-3-methylphenyl)-2-(3-chlorophenyl)acetamide], the IC50 in experiment [1] fell in the range of 1 to 25 nM; in experiment [2] (Homo sapiens, HEK293, 2 h), 26 to 50 nM.
For the compound `Cc1nc(N)c2c(-c3ccc(NC(=O)C(O)c4cccc(Cl)c4)cc3C)cn(C)c2n1` (stereo not drawn) [Example 37, N-(4-(4-amino-2,7-dimethyl-7H-pyrrolo[2,3-d]pyrimidin-5-yl)-3-methylphenyl)-2-(3-chlorophenyl)-2-hydroxyacetamide], the IC50 in experiment [1] and in experiment [2] was 1 to 25 nM in each case.
Take `Cc1cc(NC(=O)Cc2cncc3ccccc23)ccc1-c1cn(C)c2ncnc(N)c12` [Example 155, N-(4-(4-amino-7-methyl-7H-pyrrolo[2,3-d]pyrimidin-5-yl)-3-methylphenyl)-2-(isoquinolin-4-yl)acetamide]: the IC50 in experiment [1] lay in the range of 26 to 50 nM; in experiment [2] (Homo sapiens, HEK293, 2 h), 101 to 250 nM.
The like results for `COc1cccc(CC(=O)Nc2ccc(-c3cn(C)c4ncnc(N)c34)c(C)c2)c1` [Example 139, N-(4-(4-amino-7-methyl-7H-pyrrolo[2,3-d]pyrimidin-5-yl)-3-methylphenyl)-2-(3-methoxyphenyl)acetamide] were, in that order, 26 to 50 nM and 251 to 500 nM.
In the same order, the values of `Cc1cc(NC(=O)CC2CCCCC2)ccc1-c1cn(C)c2ncnc(N)c12` [Example 166, N-(4-(4-amino-7-methyl-7H-pyrrolo[2,3-d]pyrimidin-5-yl)-3-methylphenyl)-2-cyclohexyl-acetamide] are 1 to 25 nM and 101 to 250 nM.
The like results for `Cc1cc(NC(=O)C(O)c2cccc(Cl)c2)ccc1-c1cn(C)c2ncnc(N)c12` (stereo not drawn) [Example 35, N-(4-(4-amino-7-methyl-7H-pyrrolo[2,3-d]pyrimidin-5-yl)-3-methylphenyl)-2-(3-chlorophenyl)-2-hydroxyacetamide] were, in that order, 1 to 25 nM and 1 to 25 nM.
With `COc1ccc(CC(=O)Nc2ccc(-c3cn(C)c4ncnc(N)c34)c(C)c2)cc1` [Example 141, N-(4-(4-amino-7-methyl-7H-pyrrolo[2,3-d]pyrimidin-5-yl)-3-methylphenyl)-2-(4-methoxyphenyl)acetamide], the IC50 in experiment [1] was in the range of 51 to 100 nM; in experiment [2] (Homo sapiens, HEK293, 2 h), 251 to 500 nM.
The like results for `Cc1nc(N)c2c(-c3ccc(NC(=O)C(O)c4cccc5c4OCC5)cc3C)cn(C)c2n1` (stereo not drawn) [Example 63, N-(4-(4-amino-2,7-dimethyl-7H-pyrrolo[2,3-d]pyrimidin-5-yl)-3-methylphenyl)-2-(2,3-dihydrobenzofuran-7-yl)-2-hydroxyacetamide] were, in that order, 101 to 250 nM and 2000 to 3000 nM.
The like results for `Cc1cc(NC(=O)[C@H](N)c2ccccc2)ccc1-c1cn(C)c2ncnc(N)c12` [Example 26, (R)-2-amino-N-(4-(4-amino-7-methyl-7H-pyrrolo[2,3-d]pyrimidin-5-yl)-3-methylphenyl)-2-phenylacetamide] were, in that order, 26 to 50 nM and 501 to 1000 nM.
In the same order, the values of `Cc1cc(NC(=O)Cc2ccc(C(F)(F)F)cc2)ccc1-c1cn(C)c2ncnc(N)c12` [Example 159, N-(4-(4-amino-7-methyl-7H-pyrrolo[2,3-d]pyrimidin-5-yl)-3-methylphenyl)-2-(4-(trifluoromethyl)phenyl)acetamide] are 51 to 100 nM and 501 to 1000 nM.
Turning to `Cc1nc(N)c2c(-c3cnc(NC(=O)C(O)c4cccc(F)c4)cc3C)cn(C)c2n1` (stereo not drawn) [Example 133, N-(5-(4-amino-2,7-dimethyl-7H-pyrrolo[2,3-d]pyrimidin-5-yl)-4-methylpyridin-2-yl)-2-(3-fluorophenyl)-2-hydroxyacetamide], the IC50 in experiment [1] lay in the range of 251 to 500 nM; in experiment [2], 4000 to 5000 nM.
On to `CCc1cc(NC(=O)C(O)c2cccc(F)c2)ccc1-c1cn(C)c2nc(C)nc(N)c12` (stereo not drawn) [Example 69, N-(4-(4-amino-2,7-dimethyl-7H-pyrrolo[2,3-d]pyrimidin-5-yl)-3-ethylphenyl)-2-(3-fluorophenyl)-2-hydroxyacetamide], for which the concentration for half-maximal inhibition (IC50) in experiment [1] was 101 to 250 nM; in experiment [2], 2000 to 3000 nM.
In the same order, the values of `Cc1nc(N)c2c(-c3ccc(NC(=O)C(O)c4cccc(F)c4)nc3C)cn(C)c2n1` (stereo not drawn) [Example 128, N-(5-(4-amino-2,7-dimethyl-7H-pyrrolo[2,3-d]pyrimidin-5-yl)-6-methylpyridin-2-yl)-2-(3-fluorophenyl)-2-hydroxyacetamide] are 501 to 1000 nM and more than 5000 nM.
In the same order, the values of `COc1cc(NC(=O)C(O)c2cccc(F)c2)ccc1-c1cn(C)c2nc(C)nc(N)c12` (single isomer, unassigned) [Example 106, N-(4-(4-amino-2,7-dimethyl-7H-pyrrolo[2,3-d]pyrimidin-5-yl)-3-methoxyphenyl)-2-(3-fluorophenyl)-2-hydroxyacetamide] are 101 to 250 nM and 1000 to 2000 nM.
In the case of `Cc1nc(N)c2c(-c3ccc(NC(=O)C(O)c4cccc(F)c4)c(F)c3C)cn(C)c2n1` (stereo not drawn) [Example 12, N-(4-(4-amino-2,7-dimethyl-7H-pyrrolo[2,3-d]pyrimidin-5-yl)-2-fluoro-3-methylphenyl)-2-(3-fluorophenyl)-2-hydroxyacetamide], the IC50 in experiment [1] and in experiment [2] was 1 to 25 nM throughout.
With `Cc1nc(N)c2c(-c3ccc(NC(=O)C(O)c4cccc(C(F)(F)F)c4)nc3C)cn(C)c2n1` (stereo not drawn) [Example 130, N-(5-(4-amino-2,7-dimethyl-7H-pyrrolo[2,3-d]pyrimidin-5-yl)-6-methylpyridin-2-yl)-2-hydroxy-2-(3-(trifluoromethyl)phenyl)acetamide], the IC50 in experiment [1] was 101 to 250 nM; in experiment [2], 1000 to 2000 nM.
Turning to `Cc1cc(NC(=O)Cc2cccc(C)c2C)ccc1-c1cn(C)c2ncnc(N)c12` [Example 162, N-(4-(4-amino-7-methyl-7H-pyrrolo[2,3-d]pyrimidin-5-yl)-3-methylphenyl)-2-(2,3-dimethylphenyl)acetamide], the IC50 in experiment [1] fell in the range of 1 to 25 nM; in experiment [2] (Homo sapiens, HEK293, 2 h), 51 to 100 nM.
On to `Cc1nc(N)c2c(-c3ccc(NC(=O)C(O)c4cccc(C(F)(F)F)c4)nc3C)cn(C)c2n1` (stereo not drawn) [Example 129, N-(5-(4-amino-2,7-dimethyl-7H-pyrrolo[2,3-d]pyrimidin-5-yl)-6-methylpyridin-2-yl)-2-hydroxy-2-(3-(trifluoromethyl)phenyl)acetamide], for which the IC50 is 1 to 25 nM in experiment [1] and 51 to 100 nM in experiment [2].
In the case of `CCc1cccc(CC(=O)Nc2ccc(-c3cn(C)c4ncnc(N)c34)c(C)c2)c1` [Example 146, N-(4-(4-amino-7-methyl-7H-pyrrolo[2,3-d]pyrimidin-5-yl)-3-methylphenyl)-2-(3-ethylphenyl)acetamide], the IC50 in experiment [1] fell in the range of 1 to 25 nM; in experiment [2] (Homo sapiens, HEK293, 2 h), 1 to 25 nM.
`Cc1cc(F)cc(C(O)C(=O)Nc2ccc(-c3cn(C)c4nc(C)nc(N)c34)c(C)c2)c1` (stereo not drawn) [Example 56, N-(4-(4-amino-2,7-dimethyl-7H-pyrrolo[2,3-d]pyrimidin-5-yl)-3-methylphenyl)-2-(3-fluoro-5-methylphenyl)-2-hydroxyacetamide]: the IC50 in experiment [1] and in experiment [2] was 1 to 25 nM throughout.
For `Cc1nc(N)c2c(-c3ccc(NC(=O)C(O)c4cccc(C(F)(F)F)c4)cc3Cl)cn(C)c2n1` (stereo not drawn) [Example 102, N-(4-(4-amino-2,7-dimethyl-7H-pyrrolo[2,3-d]pyrimidin-5-yl)-3-chlorophenyl)-2-hydroxy-2-(3-(trifluoromethyl)phenyl)acetamide], the IC50 in experiment [1] and in experiment [2] was 101 to 250 nM throughout.
Take `Cc1cc(NC(=O)C(O)c2cccc(F)c2)ccc1-c1cn(C)c2ncnc(N)c12` (stereo not drawn) [Example 10, N-(4-(4-amino-7-methyl-7H-pyrrolo[2,3-d]pyrimidin-5-yl)-3-methylphenyl)-2-(3-fluorophenyl)-2-hydroxyacetamide]: the IC50 fell in the range of 1 to 25 nM in experiment [1] and 51 to 100 nM in experiment [2].
The like results for `Cc1c(-c2cn(C)c3ncnc(N)c23)ccc(NC(=O)C(O)c2cccc(F)c2)c1F` (stereo not drawn) [Example 117, N-(4-(4-amino-7-methyl-7H-pyrrolo[2,3-d]pyrimidin-5-yl)-2-fluoro-3-methylphenyl)-2-(3-fluorophenyl)-2-hydroxyacetamide] were, in that order, 1 to 25 nM and 1 to 25 nM.
As to `Cn1cc(-c2ccc(NC(=O)C(O)c3cccc(F)c3)cc2C(F)(F)F)c2c(N)ncnc21` (stereo not drawn) [Example 16, N-(4-(4-amino-7-methyl-7H-pyrrolo[2,3-d]pyrimidin-5-yl)-3-(trifluoromethyl)phenyl)-2-(3-fluorophenyl)-2-hydroxyacetamide], the IC50 was in the range of 1 to 25 nM in experiment [1] and 101 to 250 nM in experiment [2] (Homo sapiens, HEK293, 2 h).
